The source made the active and inactive calls. No stated cut-off is given here; in the data, actives have a measured IC50 and inactives only a lower limit.

For the assay, the target named is Envelope glycoprotein gp160 (Human immunodeficiency virus 1, UniProt Q6QLK5). The experiment in a line: inhibitors of HIV fusion peptide binding, primary screen, biochemical, uHTS, fluorescence dequenching (AID 1986).
Sequence of Envelope glycoprotein gp160 (Q6QLK5 whole entry, the tested form may be a part): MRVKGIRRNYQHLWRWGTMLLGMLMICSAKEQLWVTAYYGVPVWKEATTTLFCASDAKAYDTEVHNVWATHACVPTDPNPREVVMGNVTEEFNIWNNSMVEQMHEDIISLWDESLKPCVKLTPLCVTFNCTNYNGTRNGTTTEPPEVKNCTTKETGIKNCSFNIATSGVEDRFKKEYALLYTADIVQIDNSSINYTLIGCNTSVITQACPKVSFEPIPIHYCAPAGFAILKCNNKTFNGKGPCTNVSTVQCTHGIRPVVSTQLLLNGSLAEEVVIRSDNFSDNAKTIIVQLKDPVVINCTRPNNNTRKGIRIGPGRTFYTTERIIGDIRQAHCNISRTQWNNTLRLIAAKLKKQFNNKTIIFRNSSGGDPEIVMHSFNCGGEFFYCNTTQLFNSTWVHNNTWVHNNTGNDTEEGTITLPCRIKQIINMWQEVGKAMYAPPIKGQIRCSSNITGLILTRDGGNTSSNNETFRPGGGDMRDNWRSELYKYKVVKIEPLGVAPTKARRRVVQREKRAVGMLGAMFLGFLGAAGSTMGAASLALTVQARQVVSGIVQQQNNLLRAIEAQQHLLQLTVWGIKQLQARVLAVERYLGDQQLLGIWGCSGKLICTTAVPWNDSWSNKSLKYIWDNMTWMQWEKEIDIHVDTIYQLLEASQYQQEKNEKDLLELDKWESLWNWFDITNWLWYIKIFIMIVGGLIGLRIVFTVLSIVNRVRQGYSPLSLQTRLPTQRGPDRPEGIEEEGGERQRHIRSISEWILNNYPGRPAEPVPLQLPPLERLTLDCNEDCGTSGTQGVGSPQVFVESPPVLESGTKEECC
Regarding `COc1cc(/C=C2\SC(=S)NC2=O)ccc1OS(=O)(=O)c1ccccc1`, the 50% inhibitory concentration (IC50) (in general, the point on the concentration scale where inhibition reaches its midpoint) is 18 µM (active). The result for `CC(Oc1ccc(Cl)cc1Cl)C(=O)Nc1ccc(S(=O)(=O)Nc2cnc3ccccc3n2)cc1` (stereo not drawn) reads 15.7 µM (active). The result for `CCOc1ccc(NC(=NCc2ccc3c(c2)OCO3)SC2CC(=O)N(c3ccc(C(=O)O)cc3)C2=O)cc1` (stereo not drawn) reads 25.9 µM (active).

Source of the values: ChEMBL document CHEMBL1201862, “PubChem BioAssay data set” (2004).
